How the values were obtained:
Type in all cases: biochemical
JAK3 = molecular target: T1, JAK3 (Homo sapiens, UniProt P52333); experiment: Inhibition of a panel of kinases, in vitro HotSpot kinase assay: JAK3; details: D-compounds panel data; 1 μM ATP; read-out: IC50 JAK3
T1 sequence (P52333 1-1124): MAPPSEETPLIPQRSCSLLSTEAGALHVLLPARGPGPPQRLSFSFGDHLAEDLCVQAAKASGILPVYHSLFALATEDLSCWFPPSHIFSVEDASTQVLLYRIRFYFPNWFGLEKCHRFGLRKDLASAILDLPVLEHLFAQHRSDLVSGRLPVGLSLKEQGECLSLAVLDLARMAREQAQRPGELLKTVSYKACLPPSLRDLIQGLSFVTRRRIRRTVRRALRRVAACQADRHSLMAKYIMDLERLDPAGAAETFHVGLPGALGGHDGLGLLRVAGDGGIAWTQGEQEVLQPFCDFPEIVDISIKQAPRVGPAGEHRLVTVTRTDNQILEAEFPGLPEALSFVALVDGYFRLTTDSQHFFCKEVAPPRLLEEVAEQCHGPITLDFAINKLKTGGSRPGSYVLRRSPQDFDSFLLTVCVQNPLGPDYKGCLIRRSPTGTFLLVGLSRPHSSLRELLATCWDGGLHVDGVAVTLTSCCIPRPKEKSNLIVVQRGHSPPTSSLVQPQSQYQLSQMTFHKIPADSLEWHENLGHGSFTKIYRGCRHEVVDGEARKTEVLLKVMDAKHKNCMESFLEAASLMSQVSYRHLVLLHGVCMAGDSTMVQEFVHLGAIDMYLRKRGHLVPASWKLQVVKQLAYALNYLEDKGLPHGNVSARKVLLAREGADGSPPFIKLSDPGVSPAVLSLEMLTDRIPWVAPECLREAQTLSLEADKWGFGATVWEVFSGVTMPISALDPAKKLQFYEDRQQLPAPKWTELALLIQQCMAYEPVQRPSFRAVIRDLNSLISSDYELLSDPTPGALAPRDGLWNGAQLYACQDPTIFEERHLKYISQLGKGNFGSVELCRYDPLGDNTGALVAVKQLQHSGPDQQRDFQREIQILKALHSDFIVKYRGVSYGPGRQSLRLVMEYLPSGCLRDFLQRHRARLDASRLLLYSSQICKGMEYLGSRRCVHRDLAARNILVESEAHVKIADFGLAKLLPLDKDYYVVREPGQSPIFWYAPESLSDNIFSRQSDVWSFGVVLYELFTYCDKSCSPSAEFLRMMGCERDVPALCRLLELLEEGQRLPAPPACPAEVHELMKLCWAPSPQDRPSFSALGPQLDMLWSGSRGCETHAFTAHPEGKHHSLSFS

ITK = molecular target: T2, ITK (Homo sapiens, UniProt Q08881); experiment: Inhibition of a panel of kinases, in vitro HotSpot kinase assay: ITK; details: D-compounds panel data; 1 μM ATP
T2 sequence (Q08881 1-620): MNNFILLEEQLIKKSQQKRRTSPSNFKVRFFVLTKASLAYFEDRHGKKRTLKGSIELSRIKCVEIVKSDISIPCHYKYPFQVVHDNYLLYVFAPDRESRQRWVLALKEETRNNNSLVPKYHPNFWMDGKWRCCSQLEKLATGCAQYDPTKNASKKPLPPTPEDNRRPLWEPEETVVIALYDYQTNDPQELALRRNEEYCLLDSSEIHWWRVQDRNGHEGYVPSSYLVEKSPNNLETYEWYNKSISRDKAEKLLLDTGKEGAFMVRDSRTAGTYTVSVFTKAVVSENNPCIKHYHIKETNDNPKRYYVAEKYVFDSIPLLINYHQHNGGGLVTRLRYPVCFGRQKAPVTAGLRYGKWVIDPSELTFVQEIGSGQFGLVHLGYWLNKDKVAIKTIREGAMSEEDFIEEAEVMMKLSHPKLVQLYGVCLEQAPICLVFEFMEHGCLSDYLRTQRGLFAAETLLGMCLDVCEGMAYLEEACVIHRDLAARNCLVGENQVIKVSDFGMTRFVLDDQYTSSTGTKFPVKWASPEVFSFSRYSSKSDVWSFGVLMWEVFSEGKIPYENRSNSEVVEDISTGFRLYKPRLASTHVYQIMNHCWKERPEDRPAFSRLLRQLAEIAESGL
Procedure: (§1) The degree of inhibition of a panel of kinases is determined using the in vitro HotSpot kinase assay (purified enzymes, ^33P-ATP, an appropriate substrate and 1 μM ATP).

EGFR = EGFR (Homo sapiens, UniProt P00533); experiment: Inhibition of a panel of kinases, in vitro HotSpot kinase assay: EGFR; details: D-compounds panel data; 1 μM ATP
Chain of EGFR (P00533 25-1210): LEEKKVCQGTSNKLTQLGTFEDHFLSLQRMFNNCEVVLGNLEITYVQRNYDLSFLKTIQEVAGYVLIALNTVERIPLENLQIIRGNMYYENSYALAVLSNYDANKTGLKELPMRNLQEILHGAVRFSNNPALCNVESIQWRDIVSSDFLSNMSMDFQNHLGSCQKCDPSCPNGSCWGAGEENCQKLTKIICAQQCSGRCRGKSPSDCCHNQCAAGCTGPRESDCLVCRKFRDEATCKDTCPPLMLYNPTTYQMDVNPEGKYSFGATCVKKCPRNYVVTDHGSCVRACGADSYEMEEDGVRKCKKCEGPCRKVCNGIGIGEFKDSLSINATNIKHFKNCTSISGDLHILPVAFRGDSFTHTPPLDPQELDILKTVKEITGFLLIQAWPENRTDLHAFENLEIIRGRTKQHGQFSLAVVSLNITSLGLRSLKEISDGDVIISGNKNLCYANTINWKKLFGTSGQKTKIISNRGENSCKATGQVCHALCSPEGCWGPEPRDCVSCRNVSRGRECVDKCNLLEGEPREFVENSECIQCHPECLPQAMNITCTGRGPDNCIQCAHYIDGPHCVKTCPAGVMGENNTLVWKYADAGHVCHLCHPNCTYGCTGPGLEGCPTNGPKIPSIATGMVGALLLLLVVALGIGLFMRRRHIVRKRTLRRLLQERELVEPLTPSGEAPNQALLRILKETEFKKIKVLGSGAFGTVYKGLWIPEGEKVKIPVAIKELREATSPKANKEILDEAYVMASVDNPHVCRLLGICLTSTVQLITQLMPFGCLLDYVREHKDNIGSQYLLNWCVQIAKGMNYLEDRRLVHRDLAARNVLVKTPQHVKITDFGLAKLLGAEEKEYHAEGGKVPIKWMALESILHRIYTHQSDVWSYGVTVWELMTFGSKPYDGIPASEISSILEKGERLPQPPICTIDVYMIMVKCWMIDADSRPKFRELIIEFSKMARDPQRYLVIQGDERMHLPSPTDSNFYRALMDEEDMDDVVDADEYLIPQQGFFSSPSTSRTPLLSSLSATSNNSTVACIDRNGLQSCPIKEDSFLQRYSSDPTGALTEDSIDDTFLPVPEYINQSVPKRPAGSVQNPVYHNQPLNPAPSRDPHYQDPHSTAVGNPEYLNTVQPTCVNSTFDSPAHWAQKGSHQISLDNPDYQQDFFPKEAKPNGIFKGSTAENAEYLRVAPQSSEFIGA
Procedure: as §1

| SMILES | IC50 (JAK3) [µM] | IC50 (ITK) [µM] | IC50 (EGFR) [µM] |
| --- | --- | --- | --- |
| CCOCCOc1ccc(Nc2nc(N3CCC[C@@H](NC(=O)c4ccc(C5CC5)cc4)[C@H]3C)cnc2C(N)=O)cc1 [Example D-299, 5-[(2R,3R)-3-(4-cyclopropylbenzamido)-2-methylpiperidin-1-yl]-3-{[4-(2-ethoxyethoxy)phenyl]amino}pyrazine-2-carboxamide] | > 10 | > 10 | > 10 |
| C[C@@H]1[C@H](NC(=O)c2ccc(C3CC3)cc2)CCCN1c1cnc(C(N)=O)c(NCC2=CCN(C)CC2)n1 [Example D-300, 5-[(2R,3R)-3-(4-cyclopropylbenzamido)-2-methylpiperidin-1-yl]-3-{[(1-methyl-1,2,3,6-tetrahydropyridin-4-yl)methyl]amino}pyrazine-2-carboxamide] | > 10 | > 10 | > 10 |
| C[C@@H]1[C@H](NC(=O)c2ccc(C3CC3)cc2)CCCN1c1cnc(C(N)=O)c(Nc2ccc(C3CCN(C)CC3)cc2)n1 [Example D-301, 5-[(2R,3R)-3-(4-cyclopropylbenzamido)-2-methylpiperidin-1-yl]-3-{[4-(1-methylpiperidin-4-yl)phenyl]amino}pyrazine-2-carboxamide] | 1 to 10 | 0.1 to 1 | 0.1 to 1 |
| C[C@@H]1[C@H](NC(=O)c2ccc(C3CC3)nc2)CCCN1c1cnc(C(N)=O)c(Nc2ccc(N3CCC(F)(F)CC3)cc2)n1 [Example D-305, 5-[(2R,3R)-3-(6-cyclopropylpyridine-3-amido)-2-methylpiperidin-1-yl]-3-{[4-(4,4-difluoropiperidin-1-yl)phenyl]amino}pyrazine-2-carboxamide] | > 10 | 0.1 to 1 | 1 to 10 |
| C[C@@H]1[C@H](NC(=O)c2ccc(C3CC3)nc2)CCCN1c1cnc(C(N)=O)c(Nc2ccc(OC3CCOCC3)cc2)n1 [Example D-309, 5-[(2R,3R)-3-(6-cyclopropylpyridine-3-amido)-2-methylpiperidin-1-yl]-3-{[4-(oxan-4-yloxy)phenyl]amino}pyrazine-2-carboxamide] | 0.1 to 1 | 0.1 to 1 | 0.1 to 1 |
| C[C@@H]1[C@H](NC(=O)c2ccc(C3CC3)cc2)CCCN1c1cnc(C(N)=O)c(Nc2cc(C3CCOCC3)ns2)n1 [Example D-310, 5-[(2R,3R)-3-(4-cyclopropylbenzamido)-2-methylpiperidin-1-yl]-3-{[3-(oxan-4-yl)-1,2-thiazol-5-yl]amino}pyrazine-2-carboxamide] | 0.1 to 1 | 0.01 to 0.1 | 1 to 10 |
| C[C@@H]1[C@H](NC(=O)c2ccc(C3CC3)cc2)CCCN1c1cnc(C(N)=O)c(Nc2cc(C3CCN(C4CCCC4)CC3)ns2)n1 [Example D-311, 3-{[3-(1-cyclopentylpiperidin-4-yl)-1,2-thiazol-5-yl]amino}-5-[(2R,3R)-3-(4-cyclopropylbenzamido)-2-methylpiperidin-1-yl]pyrazine-2-carboxamide] | 0.1 to 1 | 0.01 to 0.1 | 1 to 10 |
| C[C@@H]1[C@H](NC(=O)c2ccc(C3CC3)cc2)CCCN1c1cnc(C(N)=O)c(Nc2cc(C3CCN(C)CC3)ns2)n1 [Example D-312, 5-[(2R,3R)-3-(4-cyclopropylbenzamido)-2-methylpiperidin-1-yl]-3-{[3-(1-methylpiperidin-4-yl)-1,2-thiazol-5-yl]amino}pyrazine-2-carboxamide] | 0.1 to 1 | 0.01 to 0.1 | 0.1 to 1 |

The next lines start with the values.

| IC50 (JAK3) [µM] | IC50 (ITK) [µM] | IC50 (EGFR) [µM] | SMILES |
| --- | --- | --- | --- |
| 0.1 to 1 | 0.01 to 0.1 | 1 to 10 | C[C@@H]1[C@H](NC(=O)c2ccc(C(C)(C)O)cc2)CCCN1c1nnc(C(N)=O)c(Nc2cnn(C)c2)n1 [Example D-298, 3-[(2R,3R)-3-[4-(2-hydroxypropan-2-yl)benzamido]-2-methylpiperidin-1-yl]-5-[(1-methyl-1H-pyrazol-4-yl)amino]-1,2,4-triazine-6-carboxamide] |
| 0.1 to 1 | 0.01 to 0.1 | 0.01 to 0.1 | C[C@@H]1[C@H](NC(=O)c2ccc(C(C)(C)O)cc2F)CCCN1c1cnc(C(N)=O)c(Nc2cnn(C)c2)n1 [Example D-302, 5-[(2R,3R)-3-[2-fluoro-4-(2-hydroxypropan-2-yl)benzamido]-2-methylpiperidin-1-yl]-3-[(1-methyl-1H-pyrazol-4-yl)amino]pyrazine-2-carboxamide] |
| > 10 | 1 to 10 | > 10 | C[C@@H]1[C@H](NC(=O)c2ccc(C3CC3)cc2)CCCN1c1cnc(C(N)=O)c(Nc2ccc3c(c2)CCOC3)n1 [Example D-303, 5-[(2R,3R)-3-(4-cyclopropylbenzamido)-2-methylpiperidin-1-yl]-3-[(3,4-dihydro-1H-2-benzopyran-6-yl)amino]pyrazine-2-carboxamide] |
| 1 to 10 | 1 to 10 | 1 to 10 | CCN(C)C(=O)N[C@@H]1CCCN(c2cnc(C(N)=O)c(Nc3cnn(C)c3)n2)[C@@H]1C [Example D-304, 5-[(2R,3R)-3-{[ethyl(methyl)carbamoyl]amino}-2-methylpiperidin-1-yl]-3-[(1-methyl-1H-pyrazol-4-yl)amino]pyrazine-2-carboxamide] |
| 1 to 10 | 0.1 to 1 | 1 to 10 | C[C@@H]1[C@H](NC(=O)N(C)C)CCCN1c1cnc(C(N)=O)c(Nc2ccc(N3CCC(F)(F)CC3)cc2)n1 [Example D-306, 3-{[4-(4,4-difluoropiperidin-1-yl)phenyl]amino}-5-[(2R,3R)-3-[(dimethylcarbamoyl)amino]-2-methylpiperidin-1-yl]pyrazine-2-carboxamide] |
| > 10 | 1 to 10 | > 10 | C[C@@H]1[C@H](NC(=O)c2ccc(C3CC3)cc2)CCCN1c1cnc(C(N)=O)c(Nc2cnn(C3CCC(F)(F)CC3)c2)n1 [Example D-307, 5-[(2R,3R)-3-(4-cyclopropylbenzamido)-2-methylpiperidin-1-yl]-3-{[1-(4,4-difluorocyclohexyl)-1H-pyrazol-4-yl]amino}pyrazine-2-carboxamide] |
| 1 to 10 | 0.01 to 0.1 | 1 to 10 | C[C@@H]1[C@H](NC(=O)c2ccc(C(C)(C)O)cc2F)CCCN1c1nnc(C(N)=O)c(Nc2cnn(C)c2)n1 [Example D-308, 3-[(2R,3R)-3-[2-fluoro-4-(2-hydroxypropan-2-yl)benzamido]-2-methylpiperidin-1-yl]-5-[(1-methyl-1H-pyrazol-4-yl)amino]-1,2,4-triazine-6-carboxamide] |
| 0.1 to 1 | 0.01 to 0.1 | 0.1 to 1 | C[C@@H]1[C@H](NC(=O)c2ccc(C3CC3)cc2F)CCCN1c1cnc(C(N)=O)c(Nc2ccc(N3CCNCC3)c(F)c2)n1 [Example D-313, 5-[(2R,3R)-3-(4-cyclopropyl-2-fluorobenzamido)-2-methylpiperidin-1-yl]-3-{[3-fluoro-4-(piperazin-1-yl)phenyl]amino}pyrazine-2-carboxamide] |
| 1 to 10 | 0.1 to 1 | 1 to 10 | C[C@@H]1[C@H](NC(=O)N(C)C2CC2)CCCN1c1cnc(C(N)=O)c(Nc2cnn(C)c2)n1 [Example D-314, 5-[(2R,3R)-3-{[cyclopropyl(methyl)carbamoyl]amino}-2-methylpiperidin-1-yl]-3-[(1-methyl-1H-pyrazol-4-yl)amino]pyrazine-2-carboxamide] |

From patent publication US20210070748A1, “INHIBITORS OF BRUTONS TYROSINE KINASE” (Pharmacyclics LLC, priority 2015, published 2021)
